From patent US5250283A, “Organic contrast agent analog and method of making same” (priority 1992, dated 1993)
Structures can show the parent of a compound that is named as a salt.

Test: Thin layer chromatography of bile (metabolism) in rats
Type: in vivo
Conditions: rat bile, i.v.
Procedure: Lesser concentrations were found in the other tissues. Excretion of the two compounds were found only in bile with no compound detected in urine. In bile, TFA-IOP reached a maximum concentration of […] with the recovery of 40% of the injection dose during a 90 minute time period (see FIG. 6).

**Q.** With `CCC(Cc1c(I)cc(I)c(NC(=O)C(F)(F)F)c1I)C(=O)O` (centres unmarked) [TFA-IOP, N-trifluoroacetyl-iopanoic acid] as the compound, how does the “metabolism, TLC of bile” value read?
**A.** Its value is “a vast majority of the injected TFA-IOP was metabolized to a single metabolite”.

**Q.** What about the “nonmetabolized compound in bile” value (TLC) of the same compound?
**A.** Its value is “No nonmetabolized compound was found”.
